“Also recorded” adds a separate entry of the source. Like-named read-outs stand apart in the source and are kept apart here. Oligonucleotides are written 5' to 3', each unit as a sugar letter and its base; * is a phosphorothioate linkage, no mark a phosphodiester; rarer units and linkages stand in square brackets, end groups in braces. Plain capitals give the bases only. r = 2'-OH (RNA)
What was measured:
[1] = test system: human peripheral blood mononuclear cells (PBMC); test: IFN-α production by human PBMC (ELISA of culture supernatants); type: cell-based; details: human PBMC from three donors, 24 hours, oligonucleotide 0.001-4 μM, in the presence of DOTAP (20 μg/ml); FIG. 1 and FIG. 2
Procedure: (§1) Human peripheral blood mononuclear cells (PBMC) were isolated from three donors and incubated for 24 hours in the presence of various test or control oligonucleotides or control conditions, in either the presence or absence of DOTAP (20 μg/ml). Oligonucleotides were added at different concentrations ranging from 0.001-4 μM. Culture supernatants were then collected and then analyzed by separate enzyme-linked immunosorbent assays (ELISAs) specific for human interferon alpha (IFN-α) and tumor necrosis factor alpha (TNF-α).
(§2) Control oligonucleotides and conditions included R-1012, rU*rU*rU*rU*rU*rU*rU*rU, where * represents phosphorothioate linkage and rU represents uridine; R-1075 (SEQ ID NO:206, fully phosphorothioate backbone), R-1362, rU*rU*rG*rU*rU*rG*rU*rU*rG*rU*rU*rG*rU*rU*rG*rU*rU*rG*rU*rU (SEQ ID NO:331), where * again represents phosphorothioate linkage, rU again represents uridine, and rG represents guanosine; CpG oligodeoxynucleotide 2395, T*C*G*T*C*G*T*T*T*T*C*G*G*C*G*C*G*C*G*C*C*G (SEQ ID NO:330), lipopolysaccharide (LPS), DOTAP, and no additive (w/o).
(§3) Test oligonucleotides included the following modifications of R-1012: R-1907, rU*rU*rU*rU*rU*rU*rU*rU-teg, where teg represents triethylene glycol; R-1908, rU*rU*rU*rU*rU*rU*rU*5SrU-teg, where 5S represents a linkage according to Formula II wherein X is O, X^1 is SH, X^2 is O, and X^3 is S; R-1909, rU*rU*rU*rU*rU*5SrU*rU*5SrU-teg; R-1910, rU*rU*rU*5SrU*rU*5SrU*rU*5SrU-teg; and R-1911, rU*5SrU*rU*5SrU*rU*5SrU*rU*5SrU-teg.

[2] = test system: human peripheral blood mononuclear cells (PBMC); test: TNF-α production by human PBMC (ELISA of culture supernatants); type: cell-based; details: human PBMC from three donors, 24 hours, oligonucleotide 0.001-4 μM, in the presence of DOTAP (20 μg/ml); FIG. 3 and FIG. 4
Procedure: as §1, §2, §3

[3] = Stability against nuclease degradation in human serum (IP-RP-HPLC); type: in vitro ADME
Procedure: Oligoribonucleotides R-1075 (SEQ ID NO:206), without triethylene glycol (teg) modification, and R-1907, with teg modification, were analysed using ion-pair reverse phase high pressure liquid chromatography (IP-RP-HPLC) following incubation in water or human serum for 1 to 60 minutes. While both of these oligoribonucleotides have fully phosphorothioate backbones, R-1075 is more than twice as long (18 nucleotides) as R-1907 (8 nucleotides). R-1075 incubated in water for 1 minute produced a single, sharp peak upon IP-RP-HPLC. […] R-1907 also produced a single, sharp peak following incubation in water for 1 minute. […] In fact, the peak height for R-1907 decreased by only about 50 percent following incubation in human serum for 60 minutes.

IP-RP-HPLC peak of the oligoribonucleotide after incubation in human serum [3] | decrease of IP-RP-HPLC peak height after incubation in human serum [3] | Substance | IFN-α production [1] | TNF-α production [2] | IP-RP-HPLC peak of the oligoribonucleotide after incubation in human serum ([3]; human serum, 1 minute, compared with incubation in water for 1 minute)
 |  | rU*rU*rU*rU*rU*rU*rU*5SrU-teg [R-1908] | increase in IFN-α induction compared to R-1907 | significantly higher amounts of TNF-a compared to unmodified R-1012 | 
 |  | rU*rU*rU*rU*rU*5SrU*rU*5SrU-teg [R-1909] | increase in IFN-α induction compared to R-1907 | significantly higher amounts of TNF-a compared to unmodified R-1012 | 
persisted essentially unchanged | about 50% | rU*rU*rU*rU*rU*rU*rU*rU-teg [R-1907] | reduced IFN-α production compared to unmodified R-1012 | enhanced TNF-α production compared to unmodified R-1012; also recorded: significantly higher amounts of TNF-a compared to unmodified R-1012 | 
 |  | R-1075: control oligoribonucleotide, SEQ ID NO:206 (CCGUCUGUUGUGUGACUC), fully phosphorothioate backbone, 18 nucleotides, without teg modification (rC*rC*rG*rU*rC*rU*rG*rU*rU*rG*rU*rG*rU*rG*rA*rC*rU*rC) [reference compound] |  |  | essentially completely disappeared
 |  | rU*rU*rU*5SrU*rU*5SrU*rU*5SrU-teg [R-1910] | did not induce significant amounts of IFN-α | significantly higher amounts of TNF-a compared to unmodified R-1012 | 
 |  | rU*5SrU*rU*5SrU*rU*5SrU*rU*5SrU-teg [R-1911] | did not induce significant amounts of IFN-α | significantly higher amounts of TNF-a compared to unmodified R-1012 | 
